The values below come from patent US20260007639A1, “COMPOUNDS FOR THE TREATMENT OF NEUROMUSCULAR DISORDERS” (NMD PHARMA A/S, priority 2017, published 2026).

One test has as its target T1, human CIC-1 channels (Homo sapiens, UniProt P35523).
T1 construct: host or cells: CHO (Chinese hamster ovary) cells constitutively expressing human ClC-1
The experiment in a line: Automated patch-clamp on human CIC-1 expressed in CHO cells: shift of half activation voltage ΔV1/2. The following applies: compound in intracellular solution vs control cell patches; CHO cells expressing human CIC-1. It is filed as cell-based. Here is the method: FIGS. 13A-13B: FIG. 13A illustrates the voltage protocol used to evoke currents in whole cell patches of CHO cells expressing human CIC-1 channels.
Experiments were performed using an automated patch clamp system that allowed high throughput testing of whole cell patches together with both intracellular and extracellular addition of compound.
Automated whole cell patch clamp experiments were performed with the Qpatch 16 system (Sophion Bioscience, Ballerup, Denmark) at room temperature. Data acquisition and analysis were performed in the Qassay software (ver. 5.6, Odense).
To evoke CIC-1 currents in whole cell patches, the membrane potential was initially stepped from a holding potential of −30 mV to +60 mV for 100 ms and then to various test voltages (sweeps) ranging from +120 mV to −140 mV in steps of 20 mV for 300 ms. To obtain tail currents, the membrane potential was stepped to −100 mV after each test voltage for 300 ms and then relaxed to −30 mV for 2 sec between sweeps (FIG. 3).
I/V relationships for whole cell instant and steady state current amplitudes were obtained by plotting average current densities at the beginning and at the end of the 300 ms step against the membrane potential (FIG. 4).
In order to determine the relative overall open probability (Po), the instantaneous tail currents were normalized to the maximal tail current obtained following the most positive voltage step and plotted against the test voltage. Plots of normalized tail currents from each whole cell patch were then fitted to a Boltzmann function allowing determination of half activation voltages (V1/2, FIG. 5).
For automated patch clamp experiments extracellular solutions contained: 2 mM CaCl2), 1 mM MgCl2, 10 mM HEPES, 4 mM KCl, 145 mM NaCl, 10 mM Glucose, pH adjusted to 7.4 with NaOH (2 M). Osmolality adjusted to ˜320 using sucrose.
Intracellular solutions contained: 80 mM CsF, 60 mM CsCl, 5/1 mM KOH/EGTA, 10 mM HEPES, 10 mM NaCl, pH adjusted to 7.2 with NaOH (2 M). Osmolality adjusted to ˜320 mOsm using sucrose.
Cells used in patch clamp experiments were Chinese hamster ovary cells (CHO) constitutively expressing human CIC-1 channels. The amino acid sequence encoded by the cDNA used to create this cell line was identical to the translated sequence for GenBank accession number NM_000083.2. Cells were produced by Charles River (Catalogue CT6175, Cleveland OH, USA) in a cryopreserved format. Experiments were performed on the cells directly after thawing (3×10^6 cells used in each experiment).
To evaluate the compound effect on CIC-1, when applied directly to the intracellular side of the cell membrane, the half activation voltage, V1/2, was determined from whole cell patches with compound added to the intracellular solution and then compared to V1/2 determined from control cell patches with only vehicle added to the intracellular solution. Additionally, the effect of extracellular added compound was evaluated by determine V1/2 and steady state current amplitudes before and after exchanging the extracellular solution to contain compound.
The difference in half activation voltage of CIC-1 channels, ΔV1/2, was determined as the difference between the cell patches treated intracellularly with compound and control cells patches and is reported in Table 4 below. A positive shift in ΔV 1/2 is reflecting CIC-1 channel inhibition by the tested compound. P-values of <0.05 is considered significant.

The target in the next test is T2, CIC-1 channels (Rattus norvegicus, UniProt P35524).
T2 sequence (P35524 1-994): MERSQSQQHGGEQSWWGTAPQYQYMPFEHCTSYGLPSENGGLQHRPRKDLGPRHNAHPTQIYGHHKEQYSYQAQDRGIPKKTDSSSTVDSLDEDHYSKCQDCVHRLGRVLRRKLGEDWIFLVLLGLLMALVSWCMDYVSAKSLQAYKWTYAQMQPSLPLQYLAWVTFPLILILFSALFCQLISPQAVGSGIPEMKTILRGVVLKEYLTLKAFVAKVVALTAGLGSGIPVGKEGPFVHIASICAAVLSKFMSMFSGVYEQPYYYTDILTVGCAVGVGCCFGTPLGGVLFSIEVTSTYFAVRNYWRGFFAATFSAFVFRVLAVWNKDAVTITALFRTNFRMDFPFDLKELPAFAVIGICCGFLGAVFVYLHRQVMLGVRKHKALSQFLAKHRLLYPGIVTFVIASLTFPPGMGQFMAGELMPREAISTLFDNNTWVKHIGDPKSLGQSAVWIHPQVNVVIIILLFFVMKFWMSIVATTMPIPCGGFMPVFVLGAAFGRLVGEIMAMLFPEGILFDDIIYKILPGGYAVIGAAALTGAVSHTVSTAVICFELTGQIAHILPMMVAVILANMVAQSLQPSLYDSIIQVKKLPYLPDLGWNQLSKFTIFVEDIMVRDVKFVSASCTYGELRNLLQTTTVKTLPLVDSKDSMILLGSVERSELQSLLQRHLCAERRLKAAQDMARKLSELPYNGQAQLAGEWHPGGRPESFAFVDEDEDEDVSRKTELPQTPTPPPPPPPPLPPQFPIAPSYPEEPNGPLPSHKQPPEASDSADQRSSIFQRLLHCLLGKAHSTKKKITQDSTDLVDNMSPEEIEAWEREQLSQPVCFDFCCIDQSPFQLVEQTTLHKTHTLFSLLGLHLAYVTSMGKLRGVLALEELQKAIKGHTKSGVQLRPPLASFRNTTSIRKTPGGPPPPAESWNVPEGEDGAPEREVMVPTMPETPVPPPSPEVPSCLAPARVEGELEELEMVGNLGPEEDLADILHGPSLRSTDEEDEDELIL
The experiment in a line: Electrophysiological measurement of compound inhibition of CIC-1 (Gm) in rat soleus muscle fibres: EC50 (Table 7).

Molecules are shown by their SMILES.

T1 sequence (P35523 whole entry): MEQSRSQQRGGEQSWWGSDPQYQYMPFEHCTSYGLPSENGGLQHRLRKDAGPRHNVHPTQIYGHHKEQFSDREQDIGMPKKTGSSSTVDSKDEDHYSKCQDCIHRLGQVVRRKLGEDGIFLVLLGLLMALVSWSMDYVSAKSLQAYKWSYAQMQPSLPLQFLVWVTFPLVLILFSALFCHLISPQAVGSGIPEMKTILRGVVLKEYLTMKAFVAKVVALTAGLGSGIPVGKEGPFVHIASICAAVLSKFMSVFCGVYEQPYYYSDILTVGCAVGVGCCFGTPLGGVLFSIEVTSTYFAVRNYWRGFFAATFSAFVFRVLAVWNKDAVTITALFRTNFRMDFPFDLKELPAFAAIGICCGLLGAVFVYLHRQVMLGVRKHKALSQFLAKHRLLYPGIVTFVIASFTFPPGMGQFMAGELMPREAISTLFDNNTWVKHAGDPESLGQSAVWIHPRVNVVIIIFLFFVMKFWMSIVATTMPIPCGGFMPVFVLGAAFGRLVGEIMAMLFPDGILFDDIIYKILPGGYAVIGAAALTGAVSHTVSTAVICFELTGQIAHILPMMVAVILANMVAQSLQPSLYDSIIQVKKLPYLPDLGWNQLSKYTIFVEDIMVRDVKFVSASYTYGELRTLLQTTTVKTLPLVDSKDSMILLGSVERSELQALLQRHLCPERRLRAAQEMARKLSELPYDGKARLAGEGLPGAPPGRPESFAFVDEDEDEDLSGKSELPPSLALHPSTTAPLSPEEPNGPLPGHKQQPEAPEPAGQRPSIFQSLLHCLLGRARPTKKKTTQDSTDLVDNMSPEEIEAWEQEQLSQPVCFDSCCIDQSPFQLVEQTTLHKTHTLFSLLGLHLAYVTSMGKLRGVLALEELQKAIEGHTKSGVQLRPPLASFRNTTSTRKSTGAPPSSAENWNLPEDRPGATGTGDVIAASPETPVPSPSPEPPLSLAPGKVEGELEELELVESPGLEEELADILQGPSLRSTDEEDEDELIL

On to `C[C@H](Oc1ccc(Cl)cc1-c1ccno1)C(=O)O` [Compound A-26, (2S)-2-[4-chloro-2-(1,2-oxazol-5-yl)phenoxy]propanoic acid], for which the “Δ1/2 (mV)” value at human CIC-1 channels came out at 21 mV. Moreover, the EC50 on CIC-1 channels stood at 3.6 µM.

For `O=C(O)[C@H](CF)Oc1ccc(Br)cc1-c1ccon1` [Compound A-31, (2R)-2-[4-bromo-2-(1,2-oxazol-3-yl)phenoxy]-3-fluoropropanoic acid], the “Δ1/2 (mV)” value at human CIC-1 channels amounted to 13.8 mV. The EC50 on CIC-1 channels turned out to be 3.3 µM.

`C[C@H](Oc1cc(F)c(Br)cc1-c1ccon1)C(=O)O` [Compound A-44, (2S)-2-[4-bromo-5-fluoro-2-(1,2-oxazol-3-yl)phenoxy]propanoic acid]: the “Δ1/2 (mV)” value at human CIC-1 channels came out at 17.7 mV. This molecule had a concentration giving a half-maximal response (EC50) at CIC-1 channels of 2.9 µM.

On to `C[C@H](Oc1ccc(Br)cc1-c1csnn1)C(=O)O` [Compound A-59, (2S)-2-[4-bromo-2-(1,2,3-thiadiazol-4-yl)phenoxy]propanoic acid], for which, on human CIC-1 channels, the “Δ1/2 (mV)” value is 7.9 mV. This molecule registered an EC50 at CIC-1 channels of 5.6 µM.

On to `O=C(O)COc1ccc(Br)cc1-c1ccon1` [Compound A-64, 2-[4-bromo-2-(1,2-oxazol-3-yl)phenoxy]acetic acid], for which, at human CIC-1 channels, the “Δ1/2 (mV)” value was 11.3 mV. The molecule also returned a concentration for a half-maximal effect (EC50) at CIC-1 channels of 7.4 µM.

As a reminder, the EC50 is the concentration at which the effect is half-maximal.
